Test results reported in ChEMBL document CHEMBL3137667, “[Drug-induced liver injury; fourteenth updated edition of the bibliographic database of liver injuries and related drugs]” (Gastroenterol Clin Biol, 2004).
Counter-ions that a name gives are not always drawn.

Legend:
[1] = Highest frequency of moderate liver toxicity observed during clinical trials, expressed as a percentage. [column '% BIOL' in source]; conditions: human
[2] = Highest frequency of acute liver toxicity observed during clinical trials, expressed as a percentage. [column '% AIGUE' in source]; conditions: human
[3] = Times to onset, minimal and maximal, observed in the indexed observations. [column 'DELAI' in source]; conditions: human
[4] = human, serum
[5] = human, serum; remark: listed apart in the source
[6] = human
[7] = human; remark: listed apart in the source
[8] = human; remark: listed apart in the source
[9] = human, serum, 4383 h
[10] = human; remark: listed apart in the source
[11] = human; remark: listed apart in the source
[12] = human; remark: listed apart in the source
[13] = human; remark: listed apart in the source
[14] = human; remark: listed apart in the source
[15] = human; remark: listed apart in the source
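For Hepatotoxicity (association with vascular disease) in this document: count of indexed literature references reporting vascular liver injury in humans, e.g. peliosis hepatitis, hepatic veno-occlusive disease or Budd-Chiari syndrome.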
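For Hepatotoxicity (benign tumour) in this document: value is a count of indexed literature references citing a benign tumour confirmed by histopathology.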
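For Hepatotoxicity (choleostasis) in this document: human cholestatic liver injury, shown by histopathology or by peak ALT or AST elevation over alkaline phosphatase ratio below 2, value counts indexed literature reports.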
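For Hepatotoxicity (chronic liver disease) in this document: chronic liver injury confirmed by histopathology or persistently raised serum aminotransferase activity beyond 6 months, value given as the count of indexed literature references.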
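For Hepatotoxicity (cirrhosis) in this document: value is a count of indexed literature references reporting cirrhosis confirmed by histopathology.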
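For Hepatotoxicity (cytolytic) in this document: human cytolytic liver injury, shown by histopathology or by a ratio above 5 of peak ALT or AST elevation to alkaline phosphatase elevation, value counts indexed references.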
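For Hepatotoxicity (granulomatous hepatitis) in this document: value is a count of indexed literature references reporting granulomatous liver disease confirmed by histopathology.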
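For Hepatotoxicity (malignant tumour) in this document: malignant tumour confirmed by histopathology, value gives the count of indexed literature references reporting it.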
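For Hepatotoxicity (severe hepatitis) in this document: human clinical data: severe hepatitis, meaning potentially life-threatening liver failure or clinically observed cases, the value counts how many indexed literature references report it.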
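For Hepatotoxicity (steatosis) in this document: steatosis confirmed by histopathology, value is the count of indexed references.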

| SMILES | Hepatotoxicity (time to onset) [3] | Hepatotoxicity (moderate) [4] | Hepatotoxicity (acute) [5] | Hepatotoxicity (chronic liver disease) [9] | Hepatotoxicity (cirrhosis) [10] | Hepatotoxicity (association with vascular disease) [12] | Hepatotoxicity (steatosis) [13] | Hepatotoxicity (malignant tumour) [14] | Hepatotoxicity (benign tumour) [15] | Hepatotoxicity (moderate) [1] [%] | Hepatotoxicity (acute) [2] [%] | Hepatotoxicity (cytolytic) [6] | Hepatotoxicity (choleostasis) [7] | Hepatotoxicity (severe hepatitis) [8] | Hepatotoxicity (granulomatous hepatitis) [11] | other results |
| --- | --- | --- | --- | --- | --- | --- | --- | --- | --- | --- | --- | --- | --- | --- | --- | --- |
| [AsH3] [ARSENIC] | 46 years | 4 | 1 | 1 | 1 | 0 | 0 | 1 | 0 | – | – | – | – | – | – | Hepatotoxicity (moderate) ([1]; Liver): 35.7%; Hepatotoxicity (acute) ([2]; Liver): 47.6%; Hepatotoxicity (cytolytic) ([6]; Liver): 0; Hepatotoxicity (choleostasis) ([7]; Liver): 0; Hepatotoxicity (severe hepatitis) ([8]; Liver): 0; Hepatotoxicity (granulomatous hepatitis) ([11]; Liver): 0 |
| C[C@H]1[C@H](OC(=O)CCC(=O)O)O[C@@H]2O[C@@]3(C)CC[C@H]4[C@H](C)CC[C@@H]1[C@@]24OO3 [ARTESUNATE] | 48 days | 0 | 1 | 0 | 0 | 0 | 0 | 0 | 0 | 0 | 6.7 | 1 | 0 | 0 | 0 | – |
| CC(C)NCC(O)COc1ccc(CC(N)=O)cc1 (stereo not given) [ATENOLOL] | 2 days - 9 months | 1 | 2 | 0 | 0 | 0 | 1 | 0 | 0 | 10 | 0 | 1 | 1 | 0 | 0 | – |
| CCNc1cccnc1N1CCN(C(=O)c2cc3cc(OC)ccc3[nH]2)CC1 [ATEVIRDINE MESYLATE] | 3 weeks | 0 | 1 | 0 | 0 | 0 | 0 | 0 | 0 | 0 | 6.7 | 0 | 0 | 0 | 0 | – |
| C[C@H]1[C@H](NC(=O)/C(=N\OC(C)(C)C(=O)O)c2csc(N)n2)C(=O)N1S(=O)(=O)O [AZTREONAM] | 4 days | 104 | 1 | 0 | 0 | 0 | 0 | 0 | 0 | – | – | 1 | 0 | – | 0 | Hepatotoxicity (moderate) ([1]; Liver): 60%; Hepatotoxicity (acute) ([2]; Liver): 0%; Hepatotoxicity (severe hepatitis) ([8]; Liver): 0 |
| NCC(CC(=O)O)c1ccc(Cl)cc1 (stereo not given) [BACLOFEN] | 3 weeks - 2 months | 1 | 3 | 0 | 0 | 0 | 0 | 0 | 0 | 0 | 0 | 1 | 1 | 0 | 0 | – |
| O=C(O)CCNC(=O)c1ccc(/N=N/c2ccc(O)c(C(=O)O)c2)cc1 [BALSALAZIDE] | 8 days | 0 | 1 | 0 | 0 | 0 | 0 | 0 | 0 | 0 | 0 | 0 | 1 | 0 | 0 | – |
| CCOC(=O)C(C)(CC)Oc1ccc(Cc2ccc(Cl)cc2)cc1 (stereo not given) [BECLOBRATE] | 4 months - 6.5 months | 1 | 2 | 0 | 0 | 0 | 0 | 0 | 0 | 1 | 0 | 1 | 0 | 2 | 0 | – |
| CCOC(=O)[C@H](CCc1ccccc1)N[C@H]1CCc2ccccc2N(CC(=O)O)C1=O [BENAZEPRIL] | 14 months | 0 | 2 | 0 | 0 | 0 | 0 | 0 | 0 | 0 | 0 | 1 | 0 | 1 | 0 | – |
| CC(=O)Nc1ccc(OC(=O)c2ccccc2OC(C)=O)cc1 [BENORILATE] | 3 weeks | 0 | 2 | 0 | 0 | 0 | 0 | 0 | 0 | 0 | 0 | 2 | 0 | 1 | 0 | – |
| NC(CO)C(=O)NNCc1ccc(O)c(O)c1O (stereo not given) [BENSERAZIDE] | < 3 months | 0 | 1 | 0 | 0 | 0 | 0 | 0 | 0 | 0 | 3.3 | 0 | 0 | 0 | 0 | – |
| O=C1CN=C(c2ccccc2)c2c(sc3c2CCCC3)N1 [BENTAZEPAM] | 1 month - 6 months | 1 | 2 | 3 | 1 | 0 | 0 | 0 | 0 | 0 | 0 | 2 | 0 | 0 | 0 | – |
| CCc1oc2ccccc2c1C(=O)c1cc(I)c(O)c(I)c1 [BENZIODARONE] | 1 month - 4 months | 0 | 3 | 0 | 0 | 0 | 0 | 0 | 0 | 0 | 0 | 0 | 3 | 0 | 0 | – |
| CC(C)COCC(CN(Cc1ccccc1)c1ccccc1)N1CCCC1 (stereo not given) [BEPRIDIL] | 4 days - 20 days | 3 | 1 | 0 | 0 | 0 | 1 | 0 | 0 | 2.8 | 0 | 1 | 0 | 0 | 0 | – |
| CC(O)(CS(=O)(=O)c1ccc(F)cc1)C(=O)Nc1ccc(C#N)c(C(F)(F)F)c1 (stereo not given) [BICALUTAMIDE] | 2 days | 1 | 1 | 0 | 0 | 0 | 0 | 0 | 0 | 6 | 0 | 1 | 0 | 1 | 0 | – |
